The target of the assay is T1, SHP2 (Homo sapiens, UniProt Q06124).
T1 sequence (Q06124 1-593): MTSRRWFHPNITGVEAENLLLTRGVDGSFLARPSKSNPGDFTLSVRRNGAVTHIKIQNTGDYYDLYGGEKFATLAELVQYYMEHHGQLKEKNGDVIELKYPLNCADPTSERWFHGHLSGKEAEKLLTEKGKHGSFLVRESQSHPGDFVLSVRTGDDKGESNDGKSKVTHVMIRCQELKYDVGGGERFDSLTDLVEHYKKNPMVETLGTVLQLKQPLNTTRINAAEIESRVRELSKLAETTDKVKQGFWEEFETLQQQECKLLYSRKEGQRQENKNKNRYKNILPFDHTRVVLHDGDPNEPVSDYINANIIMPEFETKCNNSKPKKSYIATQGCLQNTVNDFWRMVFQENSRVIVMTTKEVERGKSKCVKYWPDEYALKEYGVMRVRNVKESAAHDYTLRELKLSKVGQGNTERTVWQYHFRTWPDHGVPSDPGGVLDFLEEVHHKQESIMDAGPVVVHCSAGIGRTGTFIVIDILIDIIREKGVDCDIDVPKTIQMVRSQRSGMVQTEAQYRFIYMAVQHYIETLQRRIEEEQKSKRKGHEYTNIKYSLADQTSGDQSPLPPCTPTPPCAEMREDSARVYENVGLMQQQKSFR
In words: SHP2 Allosteric Inhibition Assay. It is filed as biochemical. The conditions noted are these: 0.5 nM SHP2 activated with 0.5 μM peptide IRS1_pY1172(dPEG8)pY1222; surrogate substrate DiFMUP, prompt fluorescence, 25° C. An excerpt: SHP2 Allosteric Inhibition Assay
SHP2 is allosterically activated through binding of bis-tyrosyl-phorphorylated peptides to its Src Homology 2 (SH2) domains. The latter activation step leads to the release of the auto-inhibitory interface of SHP2, which in turn renders the SHP2 protein tyrosine phosphatase (PTP) active and available for substrate recognition and reaction catalysis. The catalytic activity of SHP2 was monitored using the surrogate substrate DiFMUP in a prompt fluorescence assay format.
After 30-60 minutes incubation at 25° C., the surrogate substrate DiFMUP (Invitrogen, cat# D6567) was added to the reaction and incubated at 25° C. for 30 minutes. […] The inhibitor dose response curves were analyzed using normalized IC50 regression curve fitting with control based normalization.
Turning to `N[C@@H]1CCCC12CCN(c1cnc(Sc3cccc(Cl)c3)cn1)CC2` [Example 77], half-maximal activity (AC50) was put at 279 nM.

As for `C[C@H]1C[C@@H](N)C2(CCN(c3cnc(Sc4ccnc(N)c4Cl)cn3)CC2)C1` [Example 14], the AC50 – broadly, the midpoint of the concentration-response curve, whichever way the signal moves – was determined as 6 nM. This AC50 lies about 46-fold lower than the previous one.

The molecule `Nc1nccc(Sc2cnc(N3CCC4(CC3)C[C@H](O)[C@@H](O)[C@H]4N)cn2)c1Cl` [Example 57] had an AC50 of 43.8 nM.

As for `C[C@@H]1C[C@@H](N)C2(CCN(c3cnc(Sc4ccnc(N)c4Cl)cn3)CC2)C1` [Example 30], half-maximal activity (AC50) was put at 17 nM. This AC50 is about 2.6-fold lower than that of the molecule before.

In the case of `N[C@@H]1CCCC12CCN(c1cnc(Sc3cnnc(O)c3Cl)cn1)CC2` [Example 7, (R)-5-((5-(1-amino-8-azaspiro[4.5]decan-8-yl)pyrazin-2-yl)thio)-4-chloropyridazin-3-ol], half-maximal activity (AC50) was put at 213 nM.

Take `N[C@@H]1CCCC12CCN(c1cnc(Sc3cccc(Cl)c3F)cn1)CC2` [Example 93]: the activity was half-maximal at 89.3 nM (AC50).

The molecule `C[C@H]1OCC2(CCN(c3cnc(Sc4ccnc(N)c4Cl)cn3)CC2)[C@@H]1N` [Example 12] displayed an AC50 of 5.7 nM.

On to `N[C@H]1CCCC12CCN(c1cnc(Sc3ccccc3)cn1)CC2` [Example 130], for which the concentration at half-maximal activity (AC50) was 621 nM.

As for `CO[C@H]1C[C@@H](N)C2(CCN(c3cnc(Sc4ccnc(N)c4Cl)cn3)CC2)C1` [Example 17], the activity was half-maximal at 6.2 nM (AC50).

For `Nc1ccccc1Sc1cnc(N2CCC3(CCC[C@H]3N)CC2)cn1` [Example 68], the AC50 stood at 968 nM.

The molecule `CC1(N)CCN(c2cnc(Sc3cccnc3C(F)(F)F)cn2)CC1` [Example 6, 4-methyl-1-(5-((2-(trifluoromethyl)pyridin-3-yl)thio)pyrazin-2-yl)piperidin-4-amine] showed an AC50 of 127 nM.

In turn, `Nc1cc(Sc2cnc(N3CCC4(CCC[C@H]4N)CC3)cn2)c(Cl)c(Cl)n1` [Example 33] registered an AC50 of 19.3 nM. This AC50 lies about 6.6-fold lower than the previous one.

Molecule `N[C@@H]1CCCC12CCN(c1cnc(Sc3cccc(F)c3Cl)cn1)CC2` [Example 92] returned an AC50 of 5.77 nM. Against the preceding molecule, the AC50 is about 3.3-fold lower.

As for `N[C@@H]1COCC12CCN(c1cnc(Sc3ccnc(Cl)c3Cl)cn1)CC2` [Example 19], the AC50 was 8.5 nM.

Molecule `N#Cc1c(Sc2cnc(N3CCC4(CCC[C@H]4N)CC3)cn2)ccnc1Cl` [Example 5, (R)-4-((5-(1-amino-8-azaspiro[4.5]decan-8-yl)pyrazin-2-yl)thio)-2-chloronicotinonitrile] displayed an AC50 of 67 nM.

On to `CC1(CN)CCN(c2cnc(Sc3ccnc(N)c3Cl)cn2)CC1O` (single isomer, unassigned) [Example 40], for which the AC50 turned out to be 108 nM. Compared with the last molecule, the AC50 is about 1.6-fold higher.

On to `N[C@@H]1CCCC12CCN(c1cnc(Sc3cccc(O)c3)cn1)CC2` [Example 78], for which the AC50 was 31.8 nM.

Regarding `Nc1nccc(Sc2cnc(N3CCC4(CC3)CC(F)(F)C[C@H]4N)cn2)c1Cl` [Example 56], the AC50 amounted to 23.8 nM.

`N[C@@H]1C[C@H](O)CC12CCN(c1cnc(Sc3ccnc(Cl)c3Cl)cn1)CC2` [Example 20] returned an AC50 of 8.7 nM. Against the preceding molecule, the AC50 is about 2.7-fold lower.

In turn, `C[C@H]1C[C@@H](N)C2(CCN(c3cnc(Sc4cc(N)nc(Cl)c4Cl)cn3)CC2)C1` [Example 60] gave a half-maximal activity concentration (AC50) of 35.1 nM.

Consider `Nc1nccc(Sc2cnc(N3CCC4(CC3)C[C@H](F)C[C@H]4N)cn2)c1Cl` [Example 10], for which the AC50 was determined as 3.9 nM.

Molecule `N[C@@H]1[C@H](O)[C@@H](O)CC12CCN(c1cnc(Sc3ccnc(Cl)c3Cl)cn1)CC2` [Example 55] gave an AC50 of 5.1 nM.

The molecule `N[C@@H]1CCCC12CCN(c1cnc(Sc3ccc(C(F)(F)F)cc3)cn1)CC2` [Example 87] came in with a concentration at half-maximal activity (AC50) of 235 nM.

The molecule `Nc1nccc(Sc2cnc(N3CCC(N)(CO)CC3)cn2)c1Cl` [Example 54] had an AC50 of 381 nM.

For `CC1(CN)CCN(c2cnc(Sc3ccnc(N)c3Cl)cn2)CC1O` (single isomer, unassigned) [Example 52], half-maximal activity (AC50) was put at 791 nM.

`N[C@@H]1CCCC12CCN(c1cnc(Sc3ccncc3)cn1)CC2` [Example 89] showed a concentration at half-maximal activity (AC50) of 107 nM.

With `C[C@@H]1OCC2(CCN(c3cnc(Sc4ccnc(F)c4Cl)cn3)CC2)[C@@H]1N` [Example 111], the activity was half-maximal at 44.1 nM (AC50).

In turn, `N[C@@H]1CCCC12CCN(c1cnc(Sc3cccc(NC(=O)C4CC4)c3)cn1)CC2` [Example 96] had an AC50 of 77.7 nM. Against the preceding molecule, the AC50 is about 1.8-fold higher.

Take `N[C@@H]1COCC12CCN(c1cnc(Sc3ccncc3C(F)(F)F)cn1)CC2` [Example 49]: half-maximal activity (AC50) was put at 66.1 nM. The AC50 values of the last two molecules are within 1.5-fold of each other.

In turn, `C[C@@H]1OCC2(CCN(c3cnc(Sc4cccc(CO)c4)cn3)CC2)[C@@H]1N` [Example 117] registered a half-maximal activity concentration (AC50) of 45.1 nM.

In turn, `N[C@@H]1CCCC12CCN(c1cnc(Sc3ccnc(F)c3Cl)cn1)CC2` [Example 99] returned a concentration at half-maximal activity (AC50) of 43.9 nM.

`Nc1nccc(Sc2cnc(N3CCC4(CCC(CO)[C@H]4N)CC3)cn2)c1Cl` (stereo partly shown) [Example 133] showed an AC50 of 14.6 nM.

`CC(C)(C)c1ccccc1Sc1cnc(N2CCC3(CCC[C@@H]3N)CC2)cn1` [Example 131] had an AC50 of 1460 nM.

With `N[C@@H]1CCCC12CCN(c1cnc(Sc3cccc(Br)c3)cn1)CC2` [Example 82], the AC50 worked out at 81.1 nM.

Turning to `Nc1nccc(Sc2cnc(N3CCC4(CCCN4)CC3)cn2)c1Cl` [Example 48], the AC50 came to 63.4 nM.

`Cc1cccc(Sc2cnc(N3CCC4(CCC[C@@H]4N)CC3)cn2)c1` [Example 123] yielded an AC50 of 75.8 nM.

`CO[C@@H]1C[C@@H](N)C2(CCN(c3cnc(Sc4ccnc(N)c4Cl)cn3)CC2)C1` [Example 43] displayed an AC50 of 42.6 nM.

`CC1(CN)CCN(c2cnc(Sc3ccc(N)cc3Cl)cn2)CC1` [Example 9, 4-((5-(4-(aminomethyl)-4-methylpiperidin-1-yl)pyrazin-2-yl)thio)-3-chloroaniline]: the AC50 was 30.6 nM. This AC50 and that of the molecule before are within 1.5-fold of each other.

Consider `N[C@@H]1CCCC12CCN(c1cnc(Sc3ccnc4c3CCC4)cn1)CC2` [Example 97], for which the AC50 worked out at 29.3 nM. This AC50 and that of the molecule before are within 1.5-fold of each other.

Take `N[C@@H]1CCCC12CCN(c1cnc(Sc3cccc(Cl)c3Cl)cn1)CC2` [Example 107]: the concentration at half-maximal activity (AC50) worked out at 74 nM.

For `N[C@H]1CCCC12CCN(c1cnc(Sc3ccccc3OC(F)(F)F)cn1)CC2` [Example 126], the AC50 amounted to 130 nM.

With `CCc1cccc(Sc2cnc(N3CCC4(CCC[C@H]4N)CC3)cn2)c1` [Example 129], the half-maximal activity concentration (AC50) amounted to 526 nM.

`CC1(CN)CCN(c2cnc(Sc3cccnc3C(F)(F)F)cn2)CC1` [Example 46] displayed a concentration at half-maximal activity (AC50) of 47.6 nM.

In turn, `Nc1cc(Sc2cnc(N3CCC4(CC3)C[C@H](O)C[C@H]4N)cn2)c(Cl)c(Cl)n1` [Example 15] displayed a half-maximal activity concentration (AC50) of 6 nM.

For the molecule `C[C@@H]1OCC2(CCN(c3cnc(Sc4ccnc(F)c4)cn3)CC2)[C@@H]1N` [Example 114], the activity was half-maximal at 120 nM (AC50).

On to `N[C@@H]1CCCC12CCN(c1cnc(Sc3cc[nH]c(=O)c3Cl)cn1)CC2` [Example 105], for which the AC50 is 78.9 nM.

`CC1(O)C[C@@H](N)C2(CCN(c3cnc(Sc4ccnc(N)c4Cl)cn3)CC2)C1` (stereo partly shown) [Example 26]: the AC50 was 11.5 nM.

The molecule `C[C@@H]1OCC2(CCN(c3cnc(Sc4ccccc4)cn3)CC2)[C@@H]1N` [Example 108] had an AC50 of 52 nM.

In turn, `N[C@@H]1CCCC12CCN(c1cnc(Sc3cccc(C(F)(F)F)c3)cn1)CC2` [Example 85] had a half-maximal activity concentration (AC50) of 52.8 nM.

As to `N[C@@H]1COCC12CCN(c1cnc(Sc3cccnc3C(F)(F)F)cn1)CC2` [Example 47], the concentration at half-maximal activity (AC50) was found to be 56 nM.

The molecule `CC1(CN)CCN(c2cnc(Sc3cccc(N)c3Cl)cn2)CC1` [Example 22] displayed a concentration at half-maximal activity (AC50) of 10 nM.

For the molecule `Nc1cc(Sc2cnc(N3CCC4(CCC[C@H]4N)CC3)cn2)c(Cl)c(N)n1` [Example 37], the AC50 was found to be 24 nM.

Source of the values: patent US10287266B2, “Compounds and compositions for inhibiting the activity of SHP2” (NOVARTIS AG, priority 2015, dated 2019).
